Laboratory results as given in US4276378A, “High sensitivity assays for angiotensin converting enzyme” (priority 1977, dated 1981).
Peptide text beside a SMILES is read from it. * marks the point of attachment. Bz = O=C(c1ccccc1)*

Tests used:
[1] = tested on: ACE; experiment: Response of 3H-benzoylPheAlaPro hydrolysis to ions; format: biochemical
Protocol: An even more sensitive assay for ACE activity has been developed using the novel compound ^3 H-benzoylPheAlaPro as substrate. This new substrate can be used to assay ACE in human urine in incubations as short as 15 minutes. The response of this substrate to ions is strikingly different from the response of HipHisLeu. […] This difficulty has been solved by the proper choice of extracting solvent. While a variety of organic solvents may be suitable for the extraction step, it is preferred to employ toluene. Approximately 88% of ^3 H-benzoylPhe enters the toluene phase while only 6% of the unhydrolyzed substrate enters the toluene phase, when toluene and the acidified reaction mixtures are in approximately equal volumes at room temperature.
The enzyme is active over a broad pH range with a maximum around pH 8.0, but is at least about 50% active in the range pH 7.0-pH 8.8, for both HipHisLeu and benzoylPheAlaPro. Although the enzyme is active in a variety of buffer systems known in the art, it is preferred for convenience, when using benzoylPheAlaPro as substrate, to conduct the assays in 0.05 M Hepes buffer, pH 8.0 containing 0.15 M sodium chloride. Detailed protocols for carrying out the assay are given in the examples. […] The preferred concentration range is 1×10^-9 M to 7×10^-5 M.

[2] = Solvent extraction of substrate and remnant product from acidified reaction mixture; format: physicochemical
Excerpt: While a variety of organic solvents may be suitable for the extraction step, it is preferred to employ toluene.

[3] = target: ACE (Homo sapiens, UniProt P12821); conditions: chloride absent; cited from earlier work
ACE (Homo sapiens, UniProt P12821), sequence (P12821 30-1306, species assumed): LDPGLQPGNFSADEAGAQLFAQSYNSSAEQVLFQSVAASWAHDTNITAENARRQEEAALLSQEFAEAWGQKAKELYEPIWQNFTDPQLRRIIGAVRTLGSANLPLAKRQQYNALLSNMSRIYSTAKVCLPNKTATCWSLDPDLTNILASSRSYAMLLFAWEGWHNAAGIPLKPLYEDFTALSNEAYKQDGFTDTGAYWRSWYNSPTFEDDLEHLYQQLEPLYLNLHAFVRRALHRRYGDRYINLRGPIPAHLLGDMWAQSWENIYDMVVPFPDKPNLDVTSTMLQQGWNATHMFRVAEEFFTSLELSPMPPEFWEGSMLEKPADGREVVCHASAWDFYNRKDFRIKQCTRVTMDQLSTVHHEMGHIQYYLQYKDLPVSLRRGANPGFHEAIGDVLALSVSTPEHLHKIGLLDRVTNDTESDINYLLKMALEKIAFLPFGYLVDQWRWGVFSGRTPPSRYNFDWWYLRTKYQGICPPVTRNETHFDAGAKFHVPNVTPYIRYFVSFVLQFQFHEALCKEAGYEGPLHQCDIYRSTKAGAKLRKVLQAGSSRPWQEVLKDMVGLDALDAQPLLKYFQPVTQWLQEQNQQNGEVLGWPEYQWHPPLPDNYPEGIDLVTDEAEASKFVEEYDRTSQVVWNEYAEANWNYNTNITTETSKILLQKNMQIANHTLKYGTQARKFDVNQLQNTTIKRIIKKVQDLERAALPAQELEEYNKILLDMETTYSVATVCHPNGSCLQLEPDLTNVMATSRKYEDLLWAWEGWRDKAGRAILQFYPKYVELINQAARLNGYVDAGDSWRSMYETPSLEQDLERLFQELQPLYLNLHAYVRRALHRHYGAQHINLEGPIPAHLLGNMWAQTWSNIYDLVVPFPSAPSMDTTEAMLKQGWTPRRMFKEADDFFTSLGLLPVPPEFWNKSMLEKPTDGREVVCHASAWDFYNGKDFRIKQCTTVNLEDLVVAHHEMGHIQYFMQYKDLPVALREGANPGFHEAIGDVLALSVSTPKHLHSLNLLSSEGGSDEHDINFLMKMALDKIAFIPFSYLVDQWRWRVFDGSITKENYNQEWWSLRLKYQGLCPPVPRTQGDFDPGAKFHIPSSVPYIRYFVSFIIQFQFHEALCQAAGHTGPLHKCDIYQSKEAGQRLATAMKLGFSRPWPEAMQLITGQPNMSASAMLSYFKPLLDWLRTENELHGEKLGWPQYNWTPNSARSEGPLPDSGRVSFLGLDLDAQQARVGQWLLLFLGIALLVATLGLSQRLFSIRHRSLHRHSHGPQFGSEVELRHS

[4] = target: T1, Guinea pig serum ACE (Cavia porcellus, UniProt H0UWL7); experiment: Kinetics of sulfate-stimulated HipHisLeu hydrolysis (Example 4); format: biochemical; conditions: for V (reaction velocity): pH 8.0, 0.1 M NaCl, 37° C., 10 minutes; for V (reaction velocity) / 1/V: 0.75 M Na2 SO4; for 1/V: 0.1 M NaCl
T1 sequence (H0UWL7 33-1234): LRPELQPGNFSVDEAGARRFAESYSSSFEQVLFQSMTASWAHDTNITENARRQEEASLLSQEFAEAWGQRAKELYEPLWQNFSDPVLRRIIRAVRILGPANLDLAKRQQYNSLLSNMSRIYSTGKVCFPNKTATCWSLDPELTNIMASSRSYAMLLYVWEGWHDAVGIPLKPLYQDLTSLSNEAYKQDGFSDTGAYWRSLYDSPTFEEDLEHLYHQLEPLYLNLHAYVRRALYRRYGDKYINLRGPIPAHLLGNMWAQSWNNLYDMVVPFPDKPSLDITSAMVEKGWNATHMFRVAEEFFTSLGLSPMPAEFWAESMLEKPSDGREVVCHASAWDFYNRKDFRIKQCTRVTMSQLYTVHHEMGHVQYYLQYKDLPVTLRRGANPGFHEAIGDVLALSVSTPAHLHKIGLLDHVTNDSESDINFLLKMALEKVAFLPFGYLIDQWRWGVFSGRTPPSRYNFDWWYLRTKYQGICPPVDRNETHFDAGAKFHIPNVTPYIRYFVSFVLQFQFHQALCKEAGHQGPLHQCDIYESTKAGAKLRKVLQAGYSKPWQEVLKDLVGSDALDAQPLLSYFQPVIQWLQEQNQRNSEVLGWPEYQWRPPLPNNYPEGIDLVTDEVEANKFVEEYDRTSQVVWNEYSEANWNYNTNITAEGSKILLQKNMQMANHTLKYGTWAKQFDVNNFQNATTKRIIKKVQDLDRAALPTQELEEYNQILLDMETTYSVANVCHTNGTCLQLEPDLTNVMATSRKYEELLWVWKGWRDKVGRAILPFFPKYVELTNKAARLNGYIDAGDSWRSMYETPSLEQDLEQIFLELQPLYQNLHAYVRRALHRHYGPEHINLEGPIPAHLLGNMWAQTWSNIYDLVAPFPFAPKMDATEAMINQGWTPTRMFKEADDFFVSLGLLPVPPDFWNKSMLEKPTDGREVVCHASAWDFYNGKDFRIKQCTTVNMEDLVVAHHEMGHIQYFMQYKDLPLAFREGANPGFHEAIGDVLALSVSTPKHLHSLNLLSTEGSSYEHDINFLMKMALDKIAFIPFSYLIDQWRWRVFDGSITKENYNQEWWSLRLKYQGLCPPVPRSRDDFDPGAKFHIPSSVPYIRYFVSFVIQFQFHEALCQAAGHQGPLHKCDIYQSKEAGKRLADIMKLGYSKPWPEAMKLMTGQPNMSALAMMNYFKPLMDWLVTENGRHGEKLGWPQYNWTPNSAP
Protocol: In each assay, 50 μl of Guinea pig serum diluted 1-20 (v/v) in the reaction buffer was mixed with 50 μl of buffer containing sufficient ^3 H-HipHisLeu to provide approximately 100,000 cpm total, together with sufficient unlabeled HipHisLeu to produce the desired substrate concentrations, as indicated in Table 2. […] The reaction mixture was then extracted with 1 ml ethyl acetate. 500 μl of the ethyl acetate fraction was sampled and counted in a scintillation counter.

[5] = tested on: ACE; experiment: Apparent Km for HipHisLeu without sulfate; format: biochemical

Question: With `C[C@H](NC(=O)[C@H](Cc1ccccc1)NC(=O)c1ccccc1)C(=O)N1CCC[C@H]1C(=O)O` [benzoylPheAlaPro, benzoyl-Phe-Ala-Pro] (Bz-Phe-Ala-Pro-OH) as the molecule, how does the “effect of sodium sulfate on hydrolysis” value ([1]; 3H-benzoylPheAlaPro as substrate) read?
Answer: The value was “not stimulatory”.

Question: And the “increase of apparent reaction velocity by added sodium chloride” value ([1]; added sodium chloride at 0.05 M, 0.05 M Hepes buffer at pH 8.0)?
Answer: The value was “approximately 3 fold”.

Question: And the “extraction into ethyl acetate” value ([2]; reaction terminated with dilute hydrochloric acid)?
Answer: The value was “almost quantitatively”.

Question: What about the “fraction entering the toluene phase” value ([2]; toluene and acidified reaction mixture in approximately equal volumes at room temperature) of the same molecule?
Answer: Its value is 6%.

Question: Which inhibition of hydrolysis [3] does the source give for `CC(C)C[C@H](NC(=O)[C@H](Cc1c[nH]cn1)NC(=O)CNC(=O)c1ccccc1)C(=O)O` [HipHisLeu] (Bz-Gly-His-Leu-OH) here?
Answer: The inhibition of hydrolysis was 86%.

Question: And the Km ([4]; 0.05 M Hepes, pH 8.0, 0.1 M NaCl and 0.75 M Na2 SO4, Lineweaver and Burke plot, read-out: apparent Km)?
Answer: The Km was 177 µM.

Question: And the “V (reaction velocity)” value ([4]; HipHisLeu concentration 0.01 mM, 0.05 M Hepes)?
Answer: The value was 0.30 nmol/min/mL.

Question: And the 1/V ([4]; HipHisLeu concentration 0.01 mM)?
Answer: Its 1/V is 3.33 mL·min/nmol.

Question: What about the “V (reaction velocity)” value ([4]; HipHisLeu concentration 0.02 mM, 0.05 M Hepes) of the same molecule?
Answer: The value was 0.52 nmol/min/mL.

Question: What about the 1/V ([4]; HipHisLeu concentration 0.02 mM) of the same molecule?
Answer: Its 1/V is 1.92 mL·min/nmol.

Question: And the “V (reaction velocity)” value ([4]; HipHisLeu concentration 0.03 mM, 0.05 M Hepes)?
Answer: The value was 0.74 nmol/min/mL.

Question: And the 1/V ([4]; HipHisLeu concentration 0.03 mM)?
Answer: The 1/V was 1.35 mL·min/nmol.

Question: What about the “V (reaction velocity)” value ([4]; HipHisLeu concentration 0.04 mM, 0.05 M Hepes) of the same molecule?
Answer: The value was 1.28 nmol/min/mL.

Question: And the 1/V ([4]; HipHisLeu concentration 0.04 mM)?
Answer: Its 1/V is 0.78 mL·min/nmol.

Question: And the “V (reaction velocity)” value ([4]; HipHisLeu concentration 0.05 mM, 0.05 M Hepes)?
Answer: The value was 1.14 nmol/min/mL.

Question: What about the 1/V ([4]; HipHisLeu concentration 0.05 mM) of the same molecule?
Answer: Its 1/V is 0.88 mL·min/nmol.

Question: What about the “V (reaction velocity)” value ([4]; HipHisLeu concentration 0.06 mM, 0.05 M Hepes) of the same molecule?
Answer: The value was 1.28 nmol/min/mL.

Question: What about the 1/V ([4]; HipHisLeu concentration 0.06 mM) of the same molecule?
Answer: The 1/V was 0.78 mL·min/nmol.

Question: And the “V (reaction velocity)” value ([4]; HipHisLeu concentration 0.07 mM, 0.05 M Hepes)?
Answer: The value was 2.14 nmol/min/mL.

Question: What about the 1/V ([4]; HipHisLeu concentration 0.07 mM) of the same molecule?
Answer: Its 1/V is 0.47 mL·min/nmol.

Question: And the “V (reaction velocity)” value ([4]; HipHisLeu concentration 0.08 mM, 0.05 M Hepes)?
Answer: Its value is 1.76 nmol/min/mL.

Question: What about the 1/V ([4]; HipHisLeu concentration 0.08 mM) of the same molecule?
Answer: The 1/V was 0.57 mL·min/nmol.

Question: What about the Km [5] of the same molecule?
Answer: Its Km is about 2600 µM.
